{"source": "patent US20260184667A1", "about": "“CGMP-COMPLIANT AUTOMATED [18F]FSPG PRODUCTION FOR CLINICAL EXAMINATION” (BOARD OF REGENTS, THE UNIVERSITY OF TEXAS SYSTEM, priority 2022, published 2026)", "key": {"[1]": {"test": "Radiochemical purity on storage at room temperature (analytical reverse phase-HPLC)", "assay_type": "physicochemical", "settings": "stored at room temperature, for 5 hours after end of synthesis (FIG. 3)", "description": "The radiochemical purity of the [^18F]FSPG composition was tested at the end of synthesis and up to 5 hours after being stored at room temperature. Analytical reverse phase-HPLC was performed on an Agilent 1260 HPLC system equipped with a 1200 Series Diode Array Detector and a Raytest GABI Star NaI (TL) scintillation detector. The following process parameters were used: • Column: Phenomenex Luna C-18 (2) 250 mm×4.6 mm (5 μm) • Mobile Phase A: 40 μM aqueous disodium phosphate • Mobile Phase B: Acetonitrile/Methanol/Water (45:45:10) (% w/v) • Flow rate: 1.5 ml/min • Gradient: • Initial: 100% Mobile Phase A, 0% Mobile Phase B • 2 min: 96% Mobile Phase A, 4% Mobile Phase B • 5 min: 88% Mobile Phase A, 12% Mobile Phase B • 15 min: 88% Mobile Phase A, 12% Mobile Phase B • 20 min: 40% Mobile Phase A, 60% Mobile Phase B • 22 min: 0% Mobile Phase A, 100% Mobile Phase B • 24 min: 0% Mobile Phase A, 100% Mobile Phase B • 25 min: 100% Mobile Phase A, 0% Mobile Phase B • 30 min: 100% Mobile Phase A, 0% Mobile Phase B • Total Run Time: 35 minutes • UV detector: 340 nm • [^18F]FSPG solution (80 μl) was mixed with o-phthaldialdehyde reagent solution (20 μl). The mixture sat for 1 min prior to the HPLC analysis."}, "[2]": {"molecular_target": "T1, cystine/glutamate antiporter (Xc^−) (Homo sapiens, UniProt Q9UPY5)", "T1 construct": "from tissue; host or cells: Human tissues and tumours in vivo (healthy volunteers; patients with NSCLC, hepatocellular carcinoma or brain tumours)", "T1 sequence (Q9UPY5 1-501)": "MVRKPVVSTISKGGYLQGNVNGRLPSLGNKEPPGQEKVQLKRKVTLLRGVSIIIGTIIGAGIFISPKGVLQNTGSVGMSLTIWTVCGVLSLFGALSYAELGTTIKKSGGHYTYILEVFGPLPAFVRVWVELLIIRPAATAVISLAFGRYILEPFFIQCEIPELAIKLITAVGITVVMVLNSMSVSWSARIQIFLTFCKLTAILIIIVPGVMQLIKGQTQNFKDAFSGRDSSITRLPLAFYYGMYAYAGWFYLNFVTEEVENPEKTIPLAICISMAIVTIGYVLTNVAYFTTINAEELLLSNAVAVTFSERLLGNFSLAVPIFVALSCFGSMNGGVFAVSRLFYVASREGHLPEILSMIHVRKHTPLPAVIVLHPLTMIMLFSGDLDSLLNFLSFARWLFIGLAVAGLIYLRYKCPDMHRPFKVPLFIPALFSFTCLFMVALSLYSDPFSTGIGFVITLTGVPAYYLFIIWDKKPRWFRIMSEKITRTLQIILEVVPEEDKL", "T1 sequence (P08195 1-529 partner)": "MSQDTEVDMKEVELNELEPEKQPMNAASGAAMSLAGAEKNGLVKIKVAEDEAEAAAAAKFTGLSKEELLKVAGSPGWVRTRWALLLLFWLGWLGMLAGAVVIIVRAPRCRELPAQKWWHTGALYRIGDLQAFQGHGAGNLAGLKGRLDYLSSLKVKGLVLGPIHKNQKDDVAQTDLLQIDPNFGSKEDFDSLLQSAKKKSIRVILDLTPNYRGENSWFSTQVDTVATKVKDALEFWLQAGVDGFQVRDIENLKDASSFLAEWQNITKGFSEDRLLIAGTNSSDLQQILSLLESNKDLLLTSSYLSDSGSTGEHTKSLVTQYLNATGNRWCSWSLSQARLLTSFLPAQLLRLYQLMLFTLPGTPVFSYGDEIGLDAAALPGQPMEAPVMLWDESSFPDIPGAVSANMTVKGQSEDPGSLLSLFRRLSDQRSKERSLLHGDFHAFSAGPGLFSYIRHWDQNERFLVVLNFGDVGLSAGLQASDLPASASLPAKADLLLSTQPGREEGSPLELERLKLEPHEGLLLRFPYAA", "settings": "PET; healthy volunteers and patients with non-small cell lung cancer, hepatocellular carcinoma, brain tumors; cited from earlier work"}}, "data": [{"smiles": "N[C@@H](C[C@H](CCC[18F])C(=O)O)C(=O)O", "note": "[[^18F]FSPG, (S)-4-(3-^18F-fluoropropyl)-L-glutamic acid]", "values": [{"measurement": "radiochemical purity maintained", "setting": "[1]", "value": "> 95", "unit": "%"}, {"measurement": "background uptake", "setting": "[2]", "value": "low background uptake in the brain, lung, and bowel"}]}]}
